From patent US20240398767A1, “INHIBITORS OF THE MTDH-SND1 PROTEIN COMPLEX FOR CANCER THERAPY” (The Trustees of Princeton University, priority 2021, published 2024)

What was measured:
[1] = molecular target: T1, MTDH-SND1 interaction (split-luc) in SCP28 cells (Homo sapiens, UniProt Q7KZF4); assay: Split-luciferase reporter in living SCP28 cells; assay type: cell-based; conditions: for blocking efficiency over time (stability of the compounds in cells): 100 μM, 5 days after the addition; for split-luc activity in living cells: multiple doses, 30 min after treatment
T1 construct: SND1-NLuc and CLuc-MTDH flanked by BamH 1 and Not 1 restriction sites were inserted into pcDNA3.1 and pRVPTO (retrovrial) vectors; expressed in transfected cells; host or cells: SCP28 cells stably transduced with pRVPTO retroviral vectors (packaged in H29 cells)
Protocol: (§1) FIG. 4A, SCP28 cells that stably express split- or linked-luciferase components were treated with multiple doses of C26-A2 or C26-A6. 30 minutes (min) after treatment, culture media was removed and the luciferase activity in the cells was measured. Data represent mean±SEM. n=3 independent experiments.
FIG. 4B, The same cells as in FIG. 4A were treated with 100 μM of the compounds for indicated days, and were harvested to measure the luciferase activity. Data represent mean±SEM. n=3 independent experiments.
(§2) C26s inhibit breast cancer progression and metastasis. C26-A2 and A6 were picked for the functional test. To this end, it was tested whether C26-A2 and A6 could inhibit breast cancer progression. […] Next, SCP28 breast cancer cells that were engineered to express split- or linked-luciferase reporter were treated with C26-A2 or A6.

[2] = molecular target: T2, linked-luc in SCP28 cells (Photinus pyralis, UniProt P08659, INS416[…]); assay: Linked-luciferase reporter in living SCP28 cells; assay type: cell-based; conditions: multiple doses, 30 min after treatment
T2 construct: NLuc and CLuc were linked with 3 repeats of GGGS, flanked by the same restriction sites, and inserted into the same vectors; expressed in transfected cells; host or cells: SCP28 cells stably transduced with pRVPTO retroviral vector
Protocol: as §1, §2

[3] = system: PyMT;UBC-CreERT+/-;Mtdhfl/fl wild type tumor cells; assay: Tumorsphere assay, PyMT;UBC-CreERT+/-;Mtdhfl/fl wild type tumor cells; assay type: cell-based, mouse; conditions: 5 days after treatment
Protocol: (§3) FIG. 4C, PyMT;UBC-Cre^ERT+/−;Mtdh^fl/fl cells without 5 days of 0.02 μg/ml 4-OHT pre-treatment was employed for tumorsphere assay. 50 k per well of cells were seed and treated with indicated compounds the next day. 5 days after treatment, sphere number and size were assessed and normalized to vehicle control group. Data represent mean±SEM. n=3 independent experiments. Significance determined by one-way ANOVA analysis with Sidak's test for multiple comparisons.
Next, PyMT; UBC-Cre^ERT+/−;Mtdh^fl/fl tumor cells: 1) with or without Mtdh pre-depletion; 2) with or without endogenous Snd1 knockdown; or 3) in combination were employed for tumorsphere assay followed by the compound treatments. […] The results were confirmed using C3 and Wnt;UBC-Cre^ERT+/−;Mtdh^fl/fl tumorspheres (FIG. 11B-11E). Taken together, these findings confirmed that the anti-tumor effect of C26-A2 and A6 is dependent on their specific effect on blocking MTDH-SND1 interaction.

[4] = system: PyMT tumor cells with Mtdh KO or Snd1 KD; assay: Tumorsphere assay, PyMT;UBC-CreERT+/-;Mtdhfl/fl cells with Mtdh KO or Snd1 KD; assay type: cell-based, mouse; conditions: Mtdh KO (4-OHT pre-treatment) or Snd1 KD
Protocol: as §3, with “4D,” for “4C,”, “with” for “without”
FIG. 4E, PyMT;UBC-Cre^ERT+/−;Mtdh^fl/fl cells with or without SND1 knockdown, or without 5 days of 0.02 μg/ml 4-OHT pre-treatment were subjected to the tumorsphere assay and then treated with 200 μM of C26-A6 similar to FIG. 4C. Data represent mean SEM. n=3 independent experiments. Significance determined by two tailed Student's t-test.
FIG. 4F, PyMT;UBC-Cre^ERT+/−;Mtdh^fl/fl cells with or without SND1 knockdown, or with 5 days of 0.02 μg/ml 4-OHT pre-treatment were subjected to the tumorsphere assay and then treated with 200 μM of C26-A6 similar to FIG. 4C. Data represent mean±SEM. n=3 independent experiments. Significance determined by two tailed Student's t-test.
Next, PyMT; UBC-Cre^ERT+/−;Mtdh^fl/fl tumor cells: 1) with or without Mtdh pre-depletion; 2) with or without endogenous Snd1 knockdown; or 3) in combination were employed for tumorsphere assay followed by the compound treatments. […]

[5] = system: Wnt;UBC-CreERT+/-;Mtdhfl/fl tumor cells; assay: Tumorsphere assay, Wnt;UBC-CreERT+/-;Mtdhfl/fl tumor cells; assay type: cell-based, mouse; conditions: with or without 4-OHT pre-treatment
Protocol: For FIGS. 11B-11E, 50 k per well of cells were seeded and treated with indicated compounds the next day. 5 days after treatment, sphere number and size were assessed and normalized to vehicle control group. Data represent mean±SEM. n=3 independent experiments. Significance determined by one-way ANOVA analysis with Dunnett's test for multiple comparisons.
FIG. 11D, Wnt;UBC-Cre^ERT+/−;Mtdh^fl/fl tumor cells without 5 days of 0.02 μg/ml 4-OHT pre-treatment were subjected to the tumorsphere assay.
FIG. 11E, Wnt;UBC-Cre^ERT+/−;Mtdh^fl/fl tumor cells with 5 days of 0.02 μg/ml 4-OHT pre-treatment were subjected to the tumorsphere assay.

[6] = system: E0771-OVA Tap1/2 KD cells; assay: E0771-OVA Tap1/2 KD cells / OT-I splenocyte co-culture; assay type: cell-based, mouse
Description: For FIGS. 33B-33D, E0771-OVA cells with (shTap1/2) or without (shCtrl) Tap1/2 knockdown were co-cultured with OT-I splenocytes with the ratio of 1:10 (tumor cells:splenocytes). Data represent mean±SEM. n=3 independent experiments. Significance determined by one-way ANOVA analysis with Sidak's test for multiple comparisons.
FIG. 33B, 24 hr after co-culture, tumor cells were collected for examining OVA (H-2K^b-SIINFEKL) expression.
FIG. 33C, 24 hr after co-culture, tumor cells were collected for examining MHC-I expression.
FIG. 33D, 24 hr after co-culture, splenocytes were collected for examining CD137 expression.
FIG. 33E, The same co-culture experiment as in FIG. 33B were performed. The live tumor cells were indicated by luciferase signal. The percentage of live cells were determined as normalized to the non-co-culture control. Data represent mean±SEM. n=5 independent experiments. Significance determined by one-way ANOVA analysis with Sidak's test for multiple comparisons.
MTDH-SND1 suppresses antigen presentation by reducing Tap1/2. To confirm that MTDH-SND1 drives immune evasion through suppressing the Tap1/2 pathway, antigen presentation-deficient cells were generated by knocking down Tap1/2^20. E0771-OVA cells were transduced with lentiviruses expressing Tap1/2-targeting shRNAs. […]

T1 sequence (Q7KZF4 with tags, fused parts or gaps): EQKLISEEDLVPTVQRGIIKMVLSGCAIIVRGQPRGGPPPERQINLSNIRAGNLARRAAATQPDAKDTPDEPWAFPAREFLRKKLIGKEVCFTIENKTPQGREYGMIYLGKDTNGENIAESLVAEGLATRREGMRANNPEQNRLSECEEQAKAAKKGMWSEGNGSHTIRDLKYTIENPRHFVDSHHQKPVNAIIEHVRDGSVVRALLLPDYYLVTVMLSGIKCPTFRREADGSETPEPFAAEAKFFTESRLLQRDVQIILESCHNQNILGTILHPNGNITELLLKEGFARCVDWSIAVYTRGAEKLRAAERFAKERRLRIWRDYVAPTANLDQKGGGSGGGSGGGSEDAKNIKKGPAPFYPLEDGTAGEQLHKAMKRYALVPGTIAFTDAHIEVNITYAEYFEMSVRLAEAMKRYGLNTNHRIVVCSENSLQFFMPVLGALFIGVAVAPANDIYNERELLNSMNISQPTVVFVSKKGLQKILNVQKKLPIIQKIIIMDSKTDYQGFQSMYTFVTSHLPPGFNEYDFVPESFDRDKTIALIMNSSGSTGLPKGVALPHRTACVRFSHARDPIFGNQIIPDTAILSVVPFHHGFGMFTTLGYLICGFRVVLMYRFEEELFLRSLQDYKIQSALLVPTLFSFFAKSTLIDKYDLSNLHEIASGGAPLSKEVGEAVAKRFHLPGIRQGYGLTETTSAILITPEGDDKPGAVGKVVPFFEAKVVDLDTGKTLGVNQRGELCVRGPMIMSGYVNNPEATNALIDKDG
T2 sequence (P08659 with tags, fused parts or gaps INS416[withheld]): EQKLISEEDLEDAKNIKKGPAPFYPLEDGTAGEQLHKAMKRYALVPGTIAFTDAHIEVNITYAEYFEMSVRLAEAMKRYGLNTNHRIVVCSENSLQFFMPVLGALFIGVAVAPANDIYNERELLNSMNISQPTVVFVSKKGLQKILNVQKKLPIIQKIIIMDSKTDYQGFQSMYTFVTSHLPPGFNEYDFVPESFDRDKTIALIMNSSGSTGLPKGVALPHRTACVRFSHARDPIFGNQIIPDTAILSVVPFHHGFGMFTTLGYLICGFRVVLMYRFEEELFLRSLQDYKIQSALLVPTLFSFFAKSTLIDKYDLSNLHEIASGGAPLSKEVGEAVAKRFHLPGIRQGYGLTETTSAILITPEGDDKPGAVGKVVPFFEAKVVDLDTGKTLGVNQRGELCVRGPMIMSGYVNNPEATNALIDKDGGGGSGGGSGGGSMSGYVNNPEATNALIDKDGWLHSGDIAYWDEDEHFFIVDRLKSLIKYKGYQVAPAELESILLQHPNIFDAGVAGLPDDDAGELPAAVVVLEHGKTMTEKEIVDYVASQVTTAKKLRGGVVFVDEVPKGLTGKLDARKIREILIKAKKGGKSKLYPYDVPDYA

Row | Structure (SMILES) | blocking efficiency over time (stability of the compounds in cells) [1] | split-luc activity in living cells [1] | linked-luc activity in living cells [2] | tumorsphere formation (sphere number and size) [3] | tumorsphere formation (sphere number and size) [4] | tumorsphere formation (sphere number and size) [5] | immune killing (live tumor cells) [6] | antigen presentation and T cell activation ([6]; 24 hr co-culture)
1 | COc1ccc(Cl)cc1S(=O)(=O)Nc1cccn2ncnc12 [Analog C26-A2] | not significantly changed | inhibited split-luc activity in living cells in a dose dependent manner | without significantly affecting linked-luc activity | inhibited spheres | no effects | confirmed |  | 
2 | COc1ccc(Cl)cc1S(=O)(=O)Nc1cccn2nc(C)nc12 [Analog C26-A6] | not significantly changed | inhibited split-luc activity in living cells in a dose dependent manner | without significantly affecting linked-luc activity | inhibited spheres | no effects | confirmed | no boosting of immune killing | no such change
